Patent publication US20030138500A1 (priority 2001, published 2003)

Legend:
Format in all cases: in vivo
[1] = system: twospotted spider mites, Tetranychus urticae Koch; assay: Mortality of adult twospotted spider mites on bush bean leaves after spray treatment; details: two days after treatment, concentration in label
Description: (§1) Adult twospotted spider mites, Tetranychus urticae Koch, were obtained from a colony and 25 mites per leaf were placed on bush bean plants (one leaf per replicate). Mites were allowed to settle overnight and then treatments were applied to wetting on top and bottom leaf surfaces using a hand-held trigger sprayer. After treatment, plants were randomized on a lab bench in a randomized block design. Treatments consisted of 9 replicates of 1 plant each. Mortality was assessed 2 days following treatment.
as §1, with “10” for “9”

[2] = system: Green peach aphids, Myzus persicae (Sulzer); assay: Mortality of green peach aphids sprayed on plate glass (60 seconds exposure); details: Example 12, Table 12; after 1 day; concentration in label
Description: Green peach aphids, Myzus persicae (Sulzer), were obtained from a colony and transferred to plate glass for treatment. Treatments were then applied with a hand-held trigger sprayer to wetting and aphids remained exposed to treatments for 60 seconds. After treatment, aphids were transferred to filter paper lined petri dishes and dishes were randomized on a lab bench in a completely randomized design. Treatments consisted of 10 replicates of 10 aphids each. Mortality was assessed after 1 day.

[3] = system: green peach aphid, Myzus persicae (Sulzer); assay: Mortality of green peach aphids on infested radish plants after spray treatment; details: Example 4, Table 4, after 2 days, concentration in label
Description: Radish plants were placed in a colony for 4 days for infestation with green peach aphid, Myzus persicae (Sulzer). Treatments were then applied with a hand-held trigger sprayer to wetting on all leaf surfaces. After treatment, plants were randomized on a lab bench in a completely randomized block design. Treatments consisted of 8 replicates of 1 plant each. Mortality was assessed after 2 days by counting the live and dead aphids on all leaves.

**Q.** How did the “Observed % Mortality” value ([1]; Example 11, Table 11, adult female mites on bush bean) turn out when `CC1(C)C(C=C(Cl)Cl)C1C(=O)OCc1cccc(Oc2ccccc2)c1` (centres unmarked) [Permethrin] was run?
**A.** The value was 26.2%.

**Q.** And the “Observed % Mortality” value [2]?
**A.** Its value is 84.0%.

**Q.** With `S1SSSSSSS1` [Powdered Sulfur (0.2% ai sulfur), Sulfur] as the molecule, how does the “Observed % Mortality” value ([1]; Example 2, Table 2, adult female mites on bush bean) read?
**A.** Its value is 4.5%.

**Q.** And the “Observed % Mortality” value ([1]; Example 3, Table 3, mites on bush bean)?
**A.** Its value is 2.6%.

**Q.** And the “Observed % Mortality” value [3]?
**A.** The value was 1.3%.
